Like-named read-outs stand apart in the source and are kept apart here.
Experiments:
[1] = system: Soybean plants (Delta Pine 415); assay: Soybeans test 3c: root nodules and total N, greenhouse; format: in vivo, Glycine max; conditions: for Nodules: untreated 46
Description: In these tests various types of non-sterile soils were used. The cultivation of the plants was carried out under greenhouse or climatic chamber conditions. The active compounds according to the invention were applied uniformly distributed over the soil surface in an aqueous preparation after the emergence of the respective test plants. The supply of water for the plants was carrried out using the same technique, always paying attention to uniform moistness of the soil. In the case of the cultivation of legumes, defined amounts of species-specific Rhizobia were admixed to the soil. In some cases inoculation was also carried out by seed treatment.
a) Soybean plants (Delta Pine 415) were cultivated under greenhouse conditions in low N Limburgerhof soil in plastic pots (500 ml) and watered from above as required. A few days after emergence the plants were thinned out to 5 plants per pot.
In 8 pots in each case per test member an aqueous active compound solution of 2.3.1.3 was applied by watering. 16 pots remained untreated in each case.
c) Test procedure as in 3 a)

[2] = system: pea varieties Sparkle and Rondo; conditions: Lee and La Rue, cited from earlier work
[3] = system: soybean plants; conditions: even at distinctly higher ethylene administration; Lee and La Rue; cited from earlier work
[4] = system: white sweetclover; conditions: 0.07 μl/l of ethylene gas/l of air; Lee and La Rue; cited from earlier work
[5] = system: parent strain Sparkle; conditions: Fearn and La Rue 1991; cited from earlier work
[6] = system: mutant EZ (Sym5) of peas; conditions: severely reduced nodule formation of the mutant; Fearn and La Rue 1991; cited from earlier work
[7] = system: pea variety Sparkle; conditions: nodule formation reduced by provision of light in the root area; Lee and La Rue; cited from earlier work
[8] = 0.030 mg of a.s./pot; procedure as in 3 a)
[9] = 0.300 mg of a.s./pot; procedure as in 3 a)

Structure (SMILES) | Total N (shoots + root) [1, 8] | Nodules [1, 8] [number/pot] | Total N (shoots + root) [1, 9] | Nodules [1, 9] [number/pot] | nodulation [5] | nodule formation [6] | other results
CCCCCCOC(=O)CON=C(C)C [active compound 2.3.1.4] | 103 % of control | 55 | 110 % of control | 66 | – | – | –
C=C [ethylene] | – | – | – | – | – | – | nodule formation ([2]; 0.07 μl/l of ethylene gas/l of air): severe reduction in nodule formation; nodulation [3]: no significant effect on nodulation; nodule formation [4]: severe reduction in nodule formation
CC(C)OCOC(=O)CON=C1CCCCC1 [active compound 2.3.1.5] | 104 % of control | 70 | 107 % of control | 61 | – | – | –
O=[N+]([O-])[O-].O=[N+]([O-])[O-].[Co+2] [Co(NO3)2] | – | – | – | – | not affected | partially restored | –
O=S(=O)([O-])[O-].[Ag+].[Ag+] [Ag2SO4] | – | – | – | – | not affected | partially restored | nodule formation [7]: reverse the reduced nodule formation by light; nodule formation ([2]; peas (Sparkle), in the presence of ethylene): normal nodule formation could be restored
